From article PMC7766697, “Toxicological Screening of Four Bioactive Citroflavonoids: In Vitro, In Vivo, and In Silico Approaches” (Molecules, 2020)
Where two headings read alike, the source gives them in different places.

Assays:
Wistar rats [1] = settings: rats; for ALB (albumin) / ALB/GL Ratio / ALT / AST / DB (direct bilirubin) / GL (globulin) / GLU (glucose) / IB (indirect bilirubin) / TB (total bilirubin) / TP (total protein): after 14 days, plasma
Wistar rats [2] = experiment: Acute oral toxicity, OECD Test No. 423 (mortality, signs, LD50, body weight); type: in vivo; settings: oral 300 mg/kg, days 7 and 10
Method: Female Wistar rats (250 g b.w.) were used. These animals were obtained from Bioterium from División de Ciencias de la Salud at the Universidad de Quintana Roo. They were maintained under standard environmental conditions (22 ± 3 °C, 12 h/12 h light/dark cycle), and free access to standard rodent diet and water ad libitum. All animal procedures were conducted under our Federal Regulations for Animal Experimentation and Care and were approved by the Institutional Animal Care and Use Committee of the “Universidad Juárez Autónoma de Tabasco” university (Code:2017-001, Approved: October 2017). Rats were acclimatized for 1 week before the start of experimental procedures.
The half lethal dose (LD50) was estimated using the fixed-dose method described in OECD Guidelines for the Testing of Chemicals (Test No. 423: Acute Oral Toxicity-Class Method; OECD, 2001). […] This method allowed a step-by-step assay according to the chosen dose to begin the experiment. Subsequently, depending on the presence or absence of mortality, the decision to continue within the next step is taken, so fewer experimental animals should be used.
(§1) Rats used for this experiment were fasted for 8 h and were organized into two groups of three rats for each dose and each flavonoid. Likewise, the control group received isotonic 0.9% sodium chloride solution (dose: 5 mL/kg). All rats were closely observed for toxic symptoms and behavioral changes (sedation, hyperactivity, writhing, pruritus, feeding and drinking habits, general morphological changes, and bite legs) for 30 min and periodically 24 h post-administration. Animals were observed daily (14 days) and mortality rate recorded. A LD50 was estimated according to criteria of OECD guide 423.
The rats’ body weight in each group was determined and recorded before the treatment initiation and after 14 days. Changes in the body weight at the end of the 14 days were calculated. Once observation time was completed and to detect any adverse effect, blood samples were collected by cardiac puncture after the previous fasting of 8 h. […] In addition, organ weight was determined.

MDCK cells = experiment: MTT-based cytotoxicity assay in MDCK cells; type: cell-based, Canine; settings: 48 h, 125 to 750 µg/mL (QRT effect at 250 and 500 µg/mL)
Method: (§2) VERO and MDCK cell lines were acquired from American Type Culture Collection (ATCC, Manassas, VA, USA). […] In vitro cytotoxicity assay was performed on Madin-Darby Canine Kidney Epithelial Cells (MDCK) and green Monkey Kidney Cells (VERO) by MTT-based assay. Briefly, cells were seeded in 96-well plates at a density of 2.5 × 10^3 cells/well. […] The absorbance was measured after 45 min using a microplate reader (Multiskan Asent®) at a wavelength of 550 nm. The criteria for categorizing cytotoxicity against MDCK and VERO cells are based on the U.S. National Cancer Institute (NCI). The criteria comprise as follow: […] All results were expressed as mean ± standard error. The results from the in vivo and in vitro experiments were analyzed using software Origin® 8.0. […] The IC50 (half inhibitory concentration) values were calculated in Origin software®, (Northampton, MA, USA) and one-way ANOVA analysis was compared with cisplatin as the control.

Wistar rats [3] = type: in vivo; settings: rats, after 14 days
Method: as §1
The rats’ body weight in each group was determined and recorded before the treatment initiation and after 14 days. Changes in the body weight at the end of the 14 days were calculated. Once observation time was completed and to detect any adverse effect, blood samples were collected by cardiac puncture after the previous fasting of 8 h. For this purpose, rats were anesthetized by intraperitoneally 50 mg/kg sodium pentobarbital. The liver was carefully extracted, rinsed in normal saline, drained on blotting paper, and carefully examined for tissue lesions. In addition, organ weight was determined.
Rat blood samples were analyzed by a hematology auto-analyzer system (Sysmex XS-1000i®, SYSMEX®, Oak Ridge, TN, USA). The parameters quantified on this stage were: blood count-packed cell volume (PCV), red blood cell (RBC) count, hemoglobin (Hb), platelet count, white blood cell (WBC) count, mean cell hemoglobin concentration (MCHC), mean red cell volume (MCV), mean cell hemoglobin (MCH), prothrombin time (PT), and activated partial thromboplastin time (aPTT).

Sprague-Dawley rats = tested on: Sprague-Dawley rats; parameters: method as in PMID 28662177; settings: sub-chronic oral, 13 weeks, cited from earlier work
VERO cells = experiment: MTT-based cytotoxicity assay in VERO cells; type: cell-based, green Monkey; settings: 48 h, 125 to 750 µg/mL (QRT effect at 250–750 µg/mL)
Method: as §2

Sprague Dawley rats = tested on: Sprague Dawley rats; parameters: method as in PMID 30991075; settings: early report; cited from earlier work

What does the source list for `COc1ccc([C@@H]2CC(=O)c3c(O)cc(O[C@@H]4O[C@H](CO[C@@H]5O[C@@H](C)[C@H](O)[C@@H](O)[C@H]5O)[C@@H](O)[C@H](O)[C@H]4O)cc3O2)cc1O` [HESP, hesperidin]?
ALB (albumin) (Wistar rats [1]; oral 300 mg/kg): 4.15 ± 0.20 g/dL; ALB/GL Ratio (Wistar rats [1]; oral 300 mg/kg): 2.36 ± 0.101; ALT (Wistar rats [1]; oral 300 mg/kg): 33.78 ± 1.30 IU/L; AST (Wistar rats [1]; oral 300 mg/kg): 126.00 ± 13.18 IU/L; DB (direct bilirubin) (Wistar rats [1]; oral 300 mg/kg): 0.020 ± 0.005 mg/dL; GL (globulin) (Wistar rats [1]; oral 300 mg/kg): 1.76 ± 0.069 g/dL; GLU (glucose) (Wistar rats [1]; oral 300 mg/kg): 155.33 ± 18.71 mg/dL; IB (indirect bilirubin) (Wistar rats [1]; oral 300 mg/kg): 0.029 ± 0.003 mg/dL; TB (total bilirubin) (Wistar rats [1]; oral 300 mg/kg): 0.051 ± 0.002 mg/dL; TP (total protein) (Wistar rats [1]; oral 300 mg/kg): 5.91 ± 0.25 g/dL; ALB (albumin) (Wistar rats [1]; oral 2000 mg/kg): 4.20 ± 0.22 g/dL; ALB/GL Ratio (Wistar rats [1]; oral 2000 mg/kg): 2.38 ± 0.270; ALT (Wistar rats [1]; oral 2000 mg/kg): 41.19 ± 2.83 IU/L; AST (Wistar rats [1]; oral 2000 mg/kg): 226.65 ± 44.80 IU/L; DB (direct bilirubin) (Wistar rats [1]; oral 2000 mg/kg): 0.018 ± 0.005 mg/dL; GL (globulin) (Wistar rats [1]; oral 2000 mg/kg): 1.80 ± 0.108 g/dL; GLU (glucose) (Wistar rats [1]; oral 2000 mg/kg): 192.06 ± 12.73 mg/dL; IB (indirect bilirubin) (Wistar rats [1]; oral 2000 mg/kg): 0.046 ± 0.010 mg/dL; TB (total bilirubin) (Wistar rats [1]; oral 2000 mg/kg): 0.060 ± 0.06 mg/dL; TP (total protein) (Wistar rats [1]; oral 2000 mg/kg): 5.99 ± 0.11 g/dL; glucose values vs control (Wistar rats [1]; oral, doses tested, more evident at NAR 300 and 2000 mg/kg and NARGE 300 mg/kg): slightly amended glucose values; weight gain vs control (Wistar rats [2]): considerable weight gain differences; percentage viability / growth of cells (MDCK cells): did not change the percentage of growth; APTT (Wistar rats [3]; oral 300 mg/kg): 28.53 ± 4.31 s; Basophils (Wistar rats [3]; oral 300 mg/kg): 2.13±1.74 103/µL; Eosinophils (Wistar rats [3]; oral 300 mg/kg): 3.60±0.76 103/µL; Erythrocytes (Wistar rats [3]; oral 300 mg/kg): 7.90±0.30 106/µL; Hb (Wistar rats [3]; oral 300 mg/kg): 14.20 ± 0.37 g/dL; Hto (Wistar rats [3]; oral 300 mg/kg): 44.96±0.91%; Leukocytes (Wistar rats [3]; oral 300 mg/kg): 4.50±0.89 103/µL; Lymphocytes (Wistar rats [3]; oral 300 mg/kg): 72.27±4.36 103/µL; MCH (Wistar rats [3]; oral 300 mg/kg): 18.00 ± 0.24 pg; MCHC (Wistar rats [3]; oral 300 mg/kg): 31.56 ± 0.64 g/dL; MCV (Wistar rats [3]; oral 300 mg/kg): 57.06 ± 1.87 fL; Monocytes (Wistar rats [3]; oral 300 mg/kg): 7.07±1.50 103/µL; PT (Wistar rats [3]; oral 300 mg/kg): 17.86 ± 0.40 s; Platelets (Wistar rats [3]; oral 300 mg/kg): 720.00±125.23 105/µL; RBCDW (Wistar rats [3]; oral 300 mg/kg): 17.00±0.61%; APTT (Wistar rats [3]; oral 2000 mg/kg): 32.53 ± 3.93 s; Basophils (Wistar rats [3]; oral 2000 mg/kg): 0.00±0.00 103/µL; Eosinophils (Wistar rats [3]; oral 2000 mg/kg): 3.67±0.54 103/µL; Erythrocytes (Wistar rats [3]; oral 2000 mg/kg): 8.04±0.22 106/µL; Hb (Wistar rats [3]; oral 2000 mg/kg): 14.20 ± 0.36 g/dL; Hto (Wistar rats [3]; oral 2000 mg/kg): 43.26±0.89%; Leukocytes (Wistar rats [3]; oral 2000 mg/kg): 6.68±0.72 103/µL; Lymphocytes (Wistar rats [3]; oral 2000 mg/kg): 77.33±3.24 103/µL; MCH (Wistar rats [3]; oral 2000 mg/kg): 17.70 ± 0.24 pg; MCHC (Wistar rats [3]; oral 2000 mg/kg): 32.83 ± 0.35 g/dL; MCV (Wistar rats [3]; oral 2000 mg/kg): 53.86 ± 0.37 fL; Monocytes (Wistar rats [3]; oral 2000 mg/kg): 7.13±1.15 103/µL; PT (Wistar rats [3]; oral 2000 mg/kg): 17.73 ± 0.50 s; Platelets (Wistar rats [3]; oral 2000 mg/kg): 628.66±28.31 105/µL; RBCDW (Wistar rats [3]; oral 2000 mg/kg): 17.83±1.50%; weight gain (Sprague-Dawley rats; 1000 mg/kg): did at 1000 mg/kg; weight gain (Sprague-Dawley rats; 250 and 500 mg/kg): did not modify weight gain; percentage viability / growth of cells (VERO cells): did not change the percentage of growth; acute oral LD50 (Sprague Dawley rats): 4837.5 mg/kg
